Test results taken from patent publication US5380724A, “Piperazine and homopiperazine derivatives, pharmaceutical compositions containing them and process for preparing same” (Gyogyszerkutato Intezet KFT, priority 1992, dated 1995).

Tests used:
[1] = test system: arachidonic acid (ferrous ion dependent peroxidation); test: inhibition of the ferrous ion dependent peroxidation of arachidonic acid; format: biochemical; conditions: Fe2+ dependent peroxidation of arachidonic acid
Protocol: 2. The inhibition of the ferrous ion dependent peroxidation of arachidonic acid was also measured by the method of J. M. Braughler et al. [J. Biol. Chem. 262, 10438 (1987)] and J. A. Buege and S. D. Aust [Methods in Enzymology 52, 302 (1978)]. The IC50 values (expressed in micromols) of some compounds of the invention, further those of the reference compounds determined in this test are shown in Table 2.

[2] = test system: NADPH dependent lipid peroxidation; test: inhibition of the NADPH dependent lipid peroxidation; format: biochemical
Protocol: 3. Inhibiton of the NADPH dependent lipid peroxidation was measured according to T. J. Player and A. A. Horton [J. Neurochem. 37, 422 (1981)] and Z. Duniec [Biochem. Pharmacol. 32, 2283 (1983)]. The IC50 values (expressed in micromols) of some compounds of the invention, further those of the reference compounds determined in this test are given in Table 3.

[3] = test system: rat brain homogenate (ferrous ion dependent lipid peroxidation); test: ferrous ion dependent lipid peroxidation inhibitory activity on rat brain homogenate (thiobarbituric acid reactive substances); format: biochemical; conditions: Fe2+ dependent lipid peroxidation, TBARS
Protocol: 1. The ferrous ion dependent lipid peroxidation inhibitory activity was measured on rat brain homogenate by using the method descibed by J. M. Braughler et al., [J. Biol. Chem. 262, 10438 (1987)] and J. A. Buege and S. D. […] The IC50 value is defined as the concentration of a test substance which reduces by 50% the amount of the thiobarbituric acid reactive substances (chiefly malondialdehyde) considered to be a characteristic parameter of lipid peroxidation.

[4] = test system: ischemia induced weight increase of the small intestine; test: inhibition of ischemia induced weight increase of a definite section in the small intestine of rats; format: in vivo; conditions: Rattus norvegicus, 25 mg/kg oral
Protocol: 2. […] The percentage of inhibition observed after administration of a 25 mg/kg oral dose of the compounds of the invention or of the reference compounds is shown in Table 5.

rats = test: acute toxicity in rats; format: in vivo; conditions: 1000 mg/kg oral
acute toxicity in rats = format: in vivo; conditions: rat, in vivo, oral
acute brain injury = test: inhibition of acute brain injury of mice (improvement in the neurological state); format: in vivo; conditions: intravenous
Excerpt: 1. […] 68, 456 (1988)]. The doses of the test compounds administered by the intravenous route and the percentage of improvement in the neurological state are summarized in Table 4.

`Cc1cc(C(C)(C)C)c(O)c(C(C)(C)C)c1` [BHT, 3,5-di(tert-butyl)-4-hydroxytoluene, reference compound] showed an IC50 [1] greater than 100 µM, an IC50 [2] of 2 µM and an IC50 [3] of 1 µM.

For `C=CCCCCCCCCC(=O)N1CCN(c2cc(N3CCCC3)nc(N3CCCC3)n2)CC1` [Example 1, 1-(10-Undecenoyl)-4-[2,6-di(1-pyrrolidinyl)-4-pyrimidinyl]piperazine], the inhibition in vivo at 25 mg/kg [4] was 55%, the IC50 [3] was 30 µM and the “death of treated animals” value (rats) was “did not provoke death of any of the treated animals”. For the same compound, the LD50 (acute toxicity in rats) was greater than 1000 mg/kg and the “Improvement (in the neurological state)” value (acute brain injury; 10 mg/kg) was 68%.

Compound `C=CCCCCCCCCC(=O)N1CCN(c2cc(N)nc(N)n2)CC1` [Example 3, 1-(10-Undecenoyl)-4-(2,6-diamino-4-pyrimidinyl)-piperazine] has an inhibition in vivo at 25 mg/kg [4] of 31% and an IC50 [3] of 52 µM.

Work on `CCCCCCCCCCCCCCCCCCN1CCN(c2cc(N)nc(N)n2)CC1` [Example 4] yielded an inhibition in vivo at 25 mg/kg [4] of 46%.

For `CCCCCCCCCCCCCCCCCC(=O)N1CCCN(c2cc(N3CCCC3)nc(N3CCCC3)n2)CC1` [Example 6], the inhibition in vivo at 25 mg/kg [4] was 25%.

In the case of `CCCCCCCCCCCCCCCCCC(=O)N1CCN(c2cc(N)nc(N)n2)CC1` [Example 7], the inhibition in vivo at 25 mg/kg [4] is reported as 34%.

Work on `Nc1cc(N2CCN(C(c3ccccc3)(c3ccccc3)c3ccccc3)CC2)nc(N)n1` [Example 9, 1-Trityl-4-(2,6-diamino-4-pyrimidinyl)piperazine] yielded an inhibition in vivo at 25 mg/kg [4] of 37% and an IC50 [3] of 51 µM.

For `c1ccc(C(c2ccccc2)(c2ccccc2)N2CCN(c3cc(N4CCCC4)nc(N4CCCC4)n3)CC2)cc1` [Example 10], the inhibition in vivo at 25 mg/kg [4] was 56%, the “death of treated animals” value (rats) was “did not provoke death of any of the treated animals” and the LD50 (acute toxicity in rats) was greater than 1000 mg/kg.

`c1ccc(C(c2ccccc2)(c2ccccc2)N2CCCN(c3cc(N4CCCC4)nc(N4CCCC4)n3)CC2)cc1` [Example 11] gave an inhibition in vivo at 25 mg/kg [4] of 57%.

With `Nc1cc(N2CCN(C(c3ccccc3)(c3ccccc3)c3ccccc3Cl)CC2)nc(N)n1` [Example 12] the inhibition in vivo at 25 mg/kg [4] was 52%, the IC50 [3] was 18 µM and the “Improvement (in the neurological state)” value (acute brain injury; 10 mg/kg) was 46%.

Work on `Nc1nc2nc(N3CCN(C(c4ccccc4)(c4ccccc4)c4ccccc4Cl)CC3)nc(N)c2nc1-c1ccccc1` [Example 15] yielded an inhibition in vivo at 25 mg/kg [4] of 32%.

`Nc1nc(N)c2nc(C(=O)N3CCN(C(c4ccccc4)(c4ccccc4)c4ccccc4Cl)CC3)c(N)nc2n1` [Example 16] gave an inhibition in vivo at 25 mg/kg [4] of 45%.

For `O=c1[nH]ncc(N2CCN(C34CC5CC(CC(C5)C3)C4)CC2)c1Cl` [Example 18, 1-(1-Adamantyl)-4-(4-chloro-3-oxo-2,3-dihydro-5-pyridazinyl)piperazine], the inhibition in vivo at 25 mg/kg [4] was 31%.

For `Nc1cc(N2CCN(CC(O)COc3cccc4ccccc34)CC2)nc(N)n1` (centres unmarked) [Example 20, 1-[2-Hydroxy-3-(1-naphthyloxy)-propyl]-4-(2,6-diamino-4-pyrimidinyl)piperazine], the inhibition in vivo at 25 mg/kg [4] was 28% and the IC50 [3] was 94 µM.

For `OC(COc1cccc2ccccc12)CN1CCN(c2cc(N3CCCC3)nc(N3CCCC3)n2)CC1` (centres unmarked) [Example 22], the IC50 [3] was 13 µM.

`OC(COc1cccc2ccccc12)CN1CCCN(c2cc(N3CCCC3)nc(N3CCCC3)n2)CC1` (centres unmarked) [Example 23] gave an inhibition in vivo at 25 mg/kg [4] of 52%, an IC50 [2] of 13 µM and an IC50 [3] of 9 µM.

Compound `Nc1cc(N2CCN(CC(O)COc3ccc4ccccc4c3)CC2)nc(N)n1` (centres unmarked) [Example 24] has an inhibition in vivo at 25 mg/kg [4] of 20%.

In the case of `Nc1cc(N2CCCN(CC(O)COc3ccc4ccccc4c3)CC2)nc(N)n1` (centres unmarked) [Example 25], the inhibition in vivo at 25 mg/kg [4] is reported as 35%.

In the case of `OC(COc1ccc2ccccc2c1)CN1CCN(c2cc(N3CCCC3)nc(N3CCCC3)n2)CC1` (centres unmarked) [Example 26], the inhibition in vivo at 25 mg/kg [4] is reported as 45%, the IC50 [2] is reported as 59 µM and the IC50 [3] is reported as 19 µM.

In the case of `Nc1cc(N2CCN(CC(O)COc3ccc4c(c3)CCCC4=O)CC2)nc(N)n1` (centres unmarked) [Example 28], the inhibition in vivo at 25 mg/kg [4] is reported as 64%, the “death of treated animals” value (rats) is reported as “did not provoke death of any of the treated animals” and the LD50 (acute toxicity in rats) is reported as greater than 1000 mg/kg.

With `O=C1CCCc2cc(OCC(O)CN3CCCN(c4cc(N5CCCC5)nc(N5CCCC5)n4)CC3)ccc21` (centres unmarked) [Example 30] the inhibition in vivo at 25 mg/kg [4] was 42%, the IC50 [2] was 16 µM and the IC50 [3] was 12 µM.

`Nc1cc(N2CCN(C(=O)COc3cccc4ccccc34)CC2)nc(N)n1` [Example 31, 1-[2-(1-Naphthyloxy)acetyl]-4-(2,6-diamino-4-pyrimidinyl)piperazine] gave an inhibition in vivo at 25 mg/kg [4] of 79%.

Compound `O=C(COc1cccc2ccccc12)N1CCN(c2cc(N3CCCC3)nc(N3CCCC3)n2)CC1` [Example 33, 1-[2-(1-Naphthyloxy)acetyl]-4-[2,6-di(1-pyrrolidinyl)-4-pyrimidinyl]piperazine] has an inhibition in vivo at 25 mg/kg [4] of 53% and an IC50 [3] of 20 µM.

With `Nc1cc(N2CCN(C(=O)COc3ccc4ccccc4c3)CC2)nc(N)n1` [Example 34] the inhibition in vivo at 25 mg/kg [4] was 69%, the “death of treated animals” value (rats) was “did not provoke death of any of the treated animals” and the LD50 (acute toxicity in rats) was greater than 1000 mg/kg.

For `O=C(COc1cccc2ccccc12)N1CCCN(c2cc(N3CCCC3)nc(N3CCCC3)n2)CC1` [Example 36], the inhibition in vivo at 25 mg/kg [4] was 24% and the IC50 [3] was 30 µM.

In the case of `Nc1nc(N)c2nc(-c3ccc(OCC(O)CN4CCN(C56CC7CC(CC(C7)C5)C6)CC4)cc3)c(N)nc2n1` (centres unmarked) [Example 37, 6-[4-[3-[4-(1-Adamantyl)-1-piperazinyl]-2-hydroxypropoxy]phenyl]-2,4,7-triaminopteridine], the inhibition in vivo at 25 mg/kg [4] is reported as 35% and the IC50 [1] is reported as 17 µM.

For `Nc1nc(N)c2nc(-c3ccc(OCC(O)CN4CCN(C(c5ccccc5)(c5ccccc5)c5ccccc5Cl)CC4)cc3)c(N)nc2n1` (centres unmarked) [Example 39], the inhibition in vivo at 25 mg/kg [4] was 34%.

Compound `Nc1nc(N)c2nc(-c3ccc(OCC(O)CN4CCCNCC4)cc3)c(N)nc2n1` (centres unmarked) [Example 51] has an IC50 [1] of 28 µM.

`Nc1nc(N)c2nc(-c3ccc(NCC(O)CN4CCNCC4)cc3)c(N)nc2n1` (centres unmarked) [Example 52] gave an inhibition in vivo at 25 mg/kg [4] of 34% and an IC50 [1] of 12 µM.

`CN(CC(O)CN1CCNCC1)c1ccc(-c2nc3c(N)nc(N)nc3nc2N)cc1` (centres unmarked) [Example 53] gave an inhibition in vivo at 25 mg/kg [4] of 56% and an IC50 [1] of 0.9 µM.

For `Nc1nc(N)c2nc(-c3ccc(SCC(O)CN4CCNCC4)cc3)c(N)nc2n1` (centres unmarked) [Example 54], the inhibition in vivo at 25 mg/kg [4] was 56% and the IC50 [1] was 17 µM.

With `Nc1nc(N)c2nc(-c3ccc(NC(=O)CN4CCNCC4)cc3)c(N)nc2n1` [Example 55] the inhibition in vivo at 25 mg/kg [4] was 47%.

`Nc1nc(N)c2nc(-c3ccc(NCCCN4CCNCC4)cc3)c(N)nc2n1` [Example 56, 6-[4-[3-(1-Piperazinyl)propylamino]phenyl]-2,4,7-triamino-pteridine] showed an inhibition in vivo at 25 mg/kg [4] of 44%.

`Nc1nc2nc(N3CCN(C45CC6CC(CC(C6)C4)C5)CC3)nc(N)c2nc1-c1ccccc1` [Example 57, 1-(1-Adamantyl)-4-(4,7-diamino-6-phenyl-2-pteridinyl)piperazine] showed an IC50 [1] of 49 µM.

For `Nc1nc2nc(N3CCNCC3)nc(N)c2nc1-c1ccccc1` [Example 58, 1-(4,7-Diamino-6-phenyl-2-pteridinyl)piperazine], the IC50 [1] was 38 µM.

In the case of `Nc1nc(N2CCNCC2)c2nc(-c3ccccc3)c(N)nc2n1` [Example 59, 1-(2,7-Diamino-6-phenyl-4-pteridinyl)piperazine], the inhibition in vivo at 25 mg/kg [4] is reported as 30%.

Work on `C[C@@H]1C[C@H]2[C@@H]3CCC4=CC(=O)C=C[C@]4(C)C3=CC[C@]2(C)[C@H]1C(=O)CN1CCN(c2cc(N3CCCC3)nc(N3CCCC3)n2)CC1` [Example U74006F, 21-[4-[2,6-di(1-pyrrolidinyl)-4-pyrimidinyl]-1-piperazinyl]-16α-methyl-pregna-1,4,9(11)-triene-3,20-dione, reference compound] yielded an inhibition in vivo at 25 mg/kg [4] of 59%, an IC50 [1] greater than 100 µM and an IC50 [2] greater than 100 µM. The IC50 [3] was 39 µM, the LD50 (acute toxicity in rats) was greater than 1000 mg/kg and the “Improvement (in the neurological state)” value (acute brain injury; 30 mg/kg) was 77%.

With `Cc1c(C)c2c(c(C)c1O)CCC(C)(CN1CCN(c3cc(N4CCCC4)nc(N4CCCC4)n3)CC1)O2` (centres unmarked) [Example U78517F, 2-[[4-[2,6-di(1-pyrrolidinyl)-4-pyrimidinyl]-1-piperazinyl]methyl]-6-hydroxy-2,5,7,8-tetramethyl-3,4-dihydro-2H-1-benzopyrane, reference compound] the inhibition in vivo at 25 mg/kg [4] was 20%, the IC50 [1] was greater than 50 µM and the IC50 [2] was 0.7 µM. For the same compound, the IC50 [3] was 0.3 µM and the “Improvement (in the neurological state)” value (acute brain injury; 20 mg/kg) was 31%.

In the case of `Cc1c(C)c2c(c(C)c1O)CCC(C)(CCCC(C)CCCC(C)CCCC(C)C)O2` (stereo not drawn) [α-tocopherol, reference compound], the IC50 [1] is reported as 2 µM, the IC50 [2] is reported as greater than 100 µM and the IC50 [3] is reported as 7 µM. For the same compound, the “Improvement (in the neurological state)” value (acute brain injury; 30 mg/kg) was 97%.
